Laboratory results from article PMC6300282, “Sulphamethazine derivatives as immunomodulating agents: New therapeutic strategies for inflammatory diseases” (PLoS ONE, 2018).

How the values were obtained:
[1] = test system: Pseudomonas aeruginosa (POA 286); assay: Microplate Alamar Blue Assay, Pseudomonas aeruginosa; assay type: cell-based; conditions: 200 μg/mL, NI = No inhibition; for inhibition at 200 µg/mL: Pseudomonas aeruginosa, read-out: Percentage (%) Inhibition, Pseudomonas aerugenosa
Experimental: (§1) The anti-bacterial activity of synthesized compound were evaluated by the Microplate Alamar Blue Assay. Staphylococcus aureus (ATCC 25923), Pseudomonas aeruginosa(POA 286), Salmonella typhi (ATCC 14028), Bacillus subtilis ATCC 6633) and Escherichia coli (ATCC 12022) were used in this study as a standard bacterial strains and they were obtained from microbial bank of PCMD, International Center for Chemical and Biological Sciences, University of Karachi, Karachi-75270, Pakistan. The bacterial colonies grown in Trypton Soya Agar (TSA) (Oxoid Limited, UK) were inoculated in Mueller Hinton Broth (MHB) (Oxoid Limited, UK) and incubated overnight at 37 °C. Fully grown bacterial cultures were then diluted to adjust with 0.5 McFarland Turbidity Index (equivalent to 1.5 × 10^8 CFU/mL). Stock solutions (4 mg/mL) of different test compounds were prepared in DMSO and 10μL each of these stock solutions were placed in well of flat bottom, polystyrene, sterile 96-wells plate except the positive control wells (media + bacteria). This gives 200μg/mL concentrations of compounds in final 200 μL solution. Each compound was run in triplicates. Finally, bacterial suspension (5 x 10^6 CFU/mL) was added in each well. Plates were sealed by parafilm and incubated at 37 °C for 18–22 hrs. Next day, 20 μL of 0.02% resazurin sodium salt dye (Chem-Impex-Int’LInc) was added in each well and incubated in shaking incubator at 80 rpm, 37 °C for 2–3 hrs. The color change from blue to reddish pink indicates the growth of bacteria. For quantitative analysis, plates were read at 570 nm and 600 nm in Multiskan GOmicroplate spectrophotometer, (Thermo Scientific, USA). The % inhibition of bacterial growth was calculated using below mentioned formula.
(§2) For the calculation of the % difference in reduction between treated and control cells in cytotoxicity/proliferation assays: =(εOX)λ2Aλ1-(εOX)λ1Aλ2oftestagent/(εOX)λ2A°λ1-(εOX)λ1A°λ2ofpositivegrowthcontrol×100

MTT cytotoxicity assay = assay type: cell-based, mouse; conditions: mouse; MTT, 48 hours; read-out: Cytotoxicity NIH-3T3 cell line (IC50)
Experimental: (§3) The cytotoxicity was recorded as concentration causing 50% growth inhibition (IC50).

[2] = test system: Escherichia coli (ATCC 12022); assay: Microplate Alamar Blue Assay, Escherichia coli; assay type: cell-based; conditions: ATCC12022, 200 μg/mL, NI = No inhibition, read-out: Percentage (%) Inhibition, Escherichia coli
Experimental: as §1, §2

[3] = test system: Salmonella typhi (ATCC 14028); assay: Microplate Alamar Blue Assay, Salmonella typhi; assay type: cell-based; conditions: 200 μg/mL, NI = No inhibition; for inhibition at 200 µg/mL: Salmonella enterica, read-out: Percentage (%) Inhibition, Slamonella typhi
Experimental: as §1, §2

[4] = test system: Staphylococcus aureus (ATCC 25923); assay: Microplate Alamar Blue Assay, Staphylococcus aureus; assay type: cell-based; conditions: 200 μg/mL, NI = No inhibition; for inhibition at 200 µg/mL: Staphylococcus aureus, ATCC25923, read-out: Percentage (%) Inhibition, Staphylococcus aureus
Experimental: as §1, §2

[5] = test system: Bacillus subtilis (ATCC 6633); assay: Microplate Alamar Blue Assay, Bacillus subtilis; assay type: cell-based; conditions: ATCC6633, 200 μg/mL, NI = No inhibition, read-out: Percentage (%) Inhibition, Bacillus subtilis
Experimental: as §1, §2

[6] = test system: zymosan activated whole blood phagocytes; assay: Oxidative burst assay (luminol-enhanced chemiluminescence), whole blood; assay type: cell-based; conditions: human whole blood, serum opsonized zymosan, three doses 1, 10, 100 μg/mL, mean ± SD of three, NA = Not active, read-out: Oxidative Burst Inhibition (IC50) WB
Experimental: (§4) Luminol-enhanced chemiluminescence assay was performed, as described by Helfandet al., 1982 [17], with some modifications. Briefly 25 μL of diluted whole blood in HBSS^++ (Hanks Balanced Salt Solution, containing calcium chloride and magnesium chloride) [Sigma, St. Louis, USA] was incubated with 25 μL of three different concentrations of compounds (1, 10, and 100 μg/mL), each in triplicate. Control wells received HBSS^++ and cells, but no compounds. Test was performed in white half area 96-well plates [Costar, NY, USA], which was incubated at 37 °C for 15 minutes in the thermostat chamber of luminometer [Labsystems, Helsinki, Finland]. After incubation, 25 μL of serum opsonized zymosan (SOZ) [Fluka, Buchs, Switzerland] and 25 μL of intracellular reactive oxygen species detecting probe, luminol [Research Organics, Cleveland, OH, USA] were added into each well, except blank wells (containing only HBSS^++). The level of the ROS was recorded in luminometer in term of relative light units (RLU).

[7] = test system: isolated polymorphonuclear neutrophils (PMNs); assay: Oxidative burst assay (luminol-enhanced chemiluminescence), isolated PMNs; assay type: cell-based; conditions: Polymorphonuclear neutrophil, isolated human PMNs, zymosan, three doses 1, 10, 100 μg/mL, mean ± SD of three, read-out: Oxidative Burst Inhibition (IC50) PMNs
Source text: Heparinized blood was obtained by vein puncture aseptically from healthy volunteers. The PMNs were isolated by ficoll-Hypaque density gradient method. The cells were isolated after centrifugation from the tube base. Cells were washed twice and suspended in Hank’s Balance salt solution (HBSS^--) (Ca^2+ and Mg^2+ free), RBCs were lysed using hypotonic solution. Cells were adjusted to their required concentration (1x10^6 cells/mL) using HBSS^++containing Ca^2+ and Mg^2+.
as §4

[8] = test system: nitric oxide (NO) production from LPS activated J774.2 mouse macrophages; assay: Nitric oxide production (Griess), LPS activated macrophages; assay type: cell-based; conditions: J774.2 cells, 30 μg/mL LPS, three doses 1, 10, 100 μg/mL, mean ± SD of three, read-out: NO Inhibition (IC50)
Experimental: The mouse macrophage cell line J774.2 (European Collection of Cell Cultures, UK) was cultured in 75 cc flasks IWAKI (Asahi Techno Glass, Japan) in DMEM Sigma-Aldrich (Steinheim, Germany) supplemented with 10% fetal bovine serum GIBCO (New York, USA)1% streptomycin/penicillin. Flasks were kept at 37 °C in atmosphere of humidified air containing 5% CO2, cells were seeded in 96-well plate (10^6 cells/mL) and were induced by 30 μg/mL e. coli lipopolysaccharide (LPS) (DIFCO Laboratories michigon, USA). The test compounds were added at concentrations of (1, 10 and 100 μg/mL) and plate was incubated at 37 °C in 5% CO2. Nitrite accumulation in culture supernatant was measured using the Griess reagents as described previously.

[9] = test system: mouse fibroblast NIH-3T3 cell line; assay: MTT cytotoxicity assay; assay type: cell-based; conditions: MTT, 48 hours
Experimental: as §3

[10] = test system: TNF-α production from THP-1 human monocytic leukemia cell line; assay: TNF-α production (ELISA), LPS stimulated THP-1 cells; assay type: cell-based; conditions: PMA-differentiated THP-1 cells, 50 ng/mL LPS, 4 hours; three doses 1, 10, 100 μg/mL; mean ± SD of three
Source text: RPMI-1640 (R8758, Sigma Aldrich, St. Louis, USA); L-glutamine (25030081, Gibco, California, USA); D-glucose (G8270, Sigma Aldrich, St. Louis, USA); 2-mercaptoethanol (190242, MP Biomedicals, lllkirch, France); sodium pyruvate (11360–070, Gibco, California, USA); FBS (A11-104, PAA Laboratories, Pasching, Austria); HEPES (H3375, Sigma Aldrich, St. Louis, USA); PMA (151864, MP Biomedicals, lllkirch, France); lipopolysaccharide B of E. coli 0111:B4 (LPS) (3922–25, DIFCO Laboratories, USA); 24-well tissue culture plates (CLS3524, Corning, Dublin, USA); Flat bottom 96-well tissue culture plates (CLS3300, Corning, New York, USA). BSA (151429, MP Biomedicals, lllkirch, France); PBS tablets (41620016–4, Bioworld, Dublin, Ireland); Tween 20 (822184, Merck, Damstadt, Germany); Human TNF-α DuoSet ELISA Kit (DY210, R&D Systems, Minneapolis, USA); Human IL-1β DuoSet ELISA Kit (DY201, R&D Systems, Minneapolis, USA); and Human IL-2 DuoSet ELISA Kit (DY202, R&D Systems, Minneapolis, USA); ELISA plate sealers (DY992, R&D Systems, Minneapolis, USA); Clear flat bottom 96-well microplates (DY990, R&D Systems, Minneapolis, USA). Human monocytic leukemia cells THP-1 were obtained from (European Collection of Cell Cultures, UK). The cells were maintained in RPMI-1640 containing 5.5 mmol/L glucose (BioM Laboratories, Chemical Division, Malaysia), 50 μmol/L mercaptoethanol (Merck Damstadt, Germany), 10% FBS (fetal bovine serum), 2 mmol/L; L-glutamine (PAA Laboratories, GmbH, Pasching, Austria). Cells were grown in 75 cc flasks, harvested and 2.5×10^5 cells/mL was then plated in 24-well tissue culture plates. 20 ng/mL of phorbol-12-myristate-13-acetate (PMA), (SERVA, Heidelberg, Germany) was added followed by incubation for 24 hours at 37 °C in 5% CO2to convert them into macrophage like cell. Cells were then stimulated with E. coli lipopolysacchride B, (DIFCO Laboratories, michigon, USA) at a final concentration of 50 ng/mL and treated with compounds at three different concentration (1, 10 and 100 μg/mL) and then incubated for 4 hours at 37 °C in 5% CO2. The supernatants collected were analyzed for the level of TNF -α using the human TNF-α Duo Set ELISA (R&D Systems, Minneapolis, USA), and according to manufacturer’s instructions.

Row | Structure (SMILES) | melting point [°C] | inhibition at 200 µg/mL [1] [%] | IC50 (MTT cytotoxicity assay) [µM] | inhibition at 200 µg/mL [2] [%] | inhibition at 200 µg/mL [3] [%] | inhibition at 200 µg/mL [4] [%] | inhibition at 200 µg/mL [5] [%] | other results
1 | Cc1cc(C)cc(C(=O)Nc2ccc(S(=O)(=O)Nc3nc(C)cc(C)n3)cc2)c1 [Compound 38, N-(4-(N-(4,6-dimethylpyrimidin-2-yl)sulfamoyl)phenyl)-3,5-dimethylbenzamide] | 216 to 218 | 19 | > 30 | < 0 | < 0 | < 0 | < 0 | –
2 | CC(C)Cc1ccc(C(C)C(=O)O)cc1 (centres unmarked) [40 (Ibuprofen), Ibuprofen, reference compound] | – | – | – | – | – | – | – | IC50 [6]: 11.2 ± 1.9 µg/mL; IC50 [7]: 2.5 ± 0.6 µg/mL
3 | Cc1cc(C)nc(NS(=O)(=O)c2ccc(NC(=O)c3ccc(Cl)cc3Cl)cc2)n1 [Compound 24, 2,4-dichloro-N-(4-(N-(4,6-dimethylpyrimidin-2-yl)sulfamoyl)phenyl)benzamide] | 233 to 236 | < 0 | > 30 | 7.45 | 18.4 | 48.4 | < 0 | –
4 | Cc1cc(C)nc(NS(=O)(=O)c2ccc(NC(=O)C34CCC(C)(C(=O)O3)C4(C)C)cc2)n1 (centres unmarked) [Compound 15, N-(4-(N-(4,6-dimethylpyrimidin-2-yl)sulfamoyl)phenyl)-4,7,7-trimethyl-3-oxo-2-oxabicyclo[2.2.1]heptane-1-carboxamide] | 254 to 256 | 29.4 | > 30 | < 0 | 29.3 | 14.1 | 38.4 | –
5 | Cc1cc(C)nc(NS(=O)(=O)c2ccc(NC(=O)c3cccc(Cl)c3)cc2)n1 [Compound 21, 3-chloro-N-(4-(N-(4,6-dimethylpyrimidin-2-yl)sulfamoyl)phenyl)benzamide] | – | 28 | > 30 | < 0 | 14.6 | 54.6 | < 0 | –
6 | [H]/N=C(/NC)NCCC[C@H](N)C(=O)O [41 (L-NMMA), NG monomethyl L-arginine acetate, reference compound] | – | – | – | – | – | – | – | IC50 [8]: 24.2 ± 0.6 µg/mL
7 | Cc1cc(C)nc(NS(=O)(=O)c2ccc(NC(=O)c3ccc([N+](=O)[O-])cc3Cl)cc2)n1 [Compound 27, 2-chloro-N-(4-(N-(4,6-dimethylpyrimidin-2-yl)sulfamoyl)phenyl)-4-nitrobenzamide] | – | < 0 | > 30 | < 0 | 3.72 | 50.1 | < 0 | –
8 | Cc1cc(C)nc(NS(=O)(=O)c2ccc(NC(=O)c3cccc(C(F)(F)F)c3)cc2)n1 [Compound 20] | – | – | – | – | – | – | – | Percentage (%) Inhibition, Pseudomonas aerugenosa [1]: 1.66%; IC50 [9]: > 30 µM; Percentage (%) Inhibition, Slamonella typhi [3]: 9.30%; Percentage (%) Inhibition, Staphylococcus aureus [4]: 30.78%
9 | COc1cccc(C(=O)Nc2ccc(S(=O)(=O)Nc3nc(C)cc(C)n3)cc2)c1 [Compound 32, N-(4-(N-(4,6-dimethylpyrimidin-2-yl)sulfamoyl)phenyl)-3-methoxybenzamide] | – | < 0 | > 30 | < 0 | 19 | 32.9 | < 0 | –
10 | CC(=O)CCCCn1c(=O)c2c(ncn2C)n(C)c1=O [42 (Pentoxifillin), Pentoxifillin, reference compound] | – | – | – | – | – | – | – | TNF-α Inhibition (IC50) [10]: 94.8 ± 2.1 µg/mL
